From publication PMC11721939, “Novel tetrahydronaphthalen-1-yl-phenethyl ureas: synthesis and dual antibacterial-anticancer activities” (Journal of Enzyme Inhibition and Medicinal Chemistry, 2023)
≈ marks a conversion by molar mass, not a printed value. Where two headings read alike, the source gives them in different places.

Tests used:
[1] = system: Pseudomonas aeruginosa ATCC 9027; assay: Disc diffusion method; type: cell-based; conditions: for zone of inhibition at 250 µM: ATCC9027, 250 µM; for zone of inhibition at 250 µM / zone of inhibition at 500 µM / zone of inhibition at 1000 µM: read-out: Disc diffusion test, inhibitory zone diameter; for zone of inhibition at 500 µM: ATCC9027, 500 µM; for zone of inhibition at 1000 µM: ATCC9027, 1000 µM
Protocol: (§1) The bacteria employed for evaluation included Acinetobacter baumannii ATCC 1605, Enterococcus faecalis ATCC 49452, Pseudomonas aeruginosa ATCC 9027, and Staphylococcus aureus MRSA ATCC 43300. These strains were sourced from the Molecular Biology and Genetics Laboratory at Erzurum Technical University. They were immersed in Mueller-Hinton Broth (MHB) and then incubated at a temperature of 37 °C for a duration of 16–24 h.
(§2) Bacteria were adjusted to a McFarland standardisation of 0.5, equivalent to a cell density of 1.5 × 10^8/ml, and were then introduced into MHB. Subsequently, a 100 μl volume of this bacterial mixture was spread onto Mueller-Hinton agar plates. Sterile empty discs were then treated with the formulated ureas at concentrations of 1000, 500, and 250 µM. Oflaxin ([…]) and netilmicin ([…]) were used as positive controls, while DMSO served as the negative control. The plates were then placed in an incubator at 37 °C for a period ranging from 24 to 72 h, depending on the optimal conditions. Post incubation, the diameter of the inhibition zones was gauged to determine the antibacterial efficacy. This entire process was replicated three times.

[2] = system: Staphylococcus aureus MRSA ATCC 43300; assay: Disc diffusion method; type: cell-based; conditions: for zone of inhibition at 500 µM / zone of inhibition at 1000 µM / zone of inhibition at 250 µM: Staphylococcus aureus, read-out: Disc diffusion test, inhibitory zone diameter; for Standard antibiotic disc, inhibitory zone diameter: Staphylococcus aureus MRSA
Protocol: as §1, §2

[3] = system: Pseudomonas aeruginosa ATCC 9027; assay: Micro-well dilution assay (MIC); type: cell-based; conditions: for MIC: ATCC9027
Protocol: as §1
(§3) The synthesised ureas’ minimum inhibitory concentrations (MICs) against the bacterial samples were ascertained using the microdilution broth technique. Utilising a method of twofold serial dilutions, the ureas were diluted to concentrations spanning from […]. The bacterial turbidity was set to match the 0.5 McFarland standard. In the 96-well plates, each well received 100 μl of MHB and 5 μl of the bacteria being tested. For the negative control, 195 μl of MHB and 5 μl of the bacterial sample were added. The plate was then covered with a sterile seal and allowed to incubate for 24 h at a temperature of 37 °C. Post incubation, the growth of the bacteria was assessed at 600 nm using the Fluoroskan Ascent® FL. The MIC represented the smallest amount of the chemical that effectively halted bacterial growth. This procedure was conducted three times.

[4] = system: Staphylococcus aureus MRSA ATCC 43300; assay: Micro-well dilution assay (MIC); type: cell-based
Protocol: as §1, §3

HeLa cells [5] = assay: WST-8 cytotoxicity assay; type: cell-based, human; conditions: for IC50: Homo sapiens, HeLa cells, 48 h, WST-8, n = 4, read-out: Cytotoxic activity IC50; for SI value (HeLa cells): IC50 PCS-201-012 fibroblasts / IC50 HeLa, n = 4
Protocol: (§4) The cells in culture were frequently sub-cultured, about 2–3 times weekly, until they reached a confluence of 80–90%. The experiments were organised into seven cell groups as follows: group I served as the control, while groups II through VII were pre-treated with varying dosages of the synthesised ureas (ranging from 12.5 µM to 500 µM). The cytotoxic potential of these ureas was assessed in vitro using the Cell Viability Detection Kit-8 (CVDK-8, Ecotech Biotechnology, Erzurum, Turkey), a method based on WST-8 quantification for human primary dermal fibroblasts and cervical cancer cells. Healthy fibroblast, HeLa, and SH-SY5Y cells were allocated in 96-well plates, with each well containing 5 × 10^3 cells in 100 µL of DMEM:F12 (supplemented with 1% penicillin/streptomycin and 10% FBS). After an overnight growth, these cells were exposed to specified concentrations of the synthesised ureas for a duration of 48 h at 37 °C in a 5% CO2 atmosphere. Cisplatin acted as the positive control with concentration gradients of 0–250 µM for HeLa cells and 0–20 µM for the SH-SY5Y cells. Post incubation, in sterile, dimly lit conditions, 10% WST-8 solution was added to every well and further incubated at 37 °C within 5% CO2 for another 3–4 h. The optical density of the 96-well plate was gauged at a 450 nm wavelength using a spectrophotometer (BioTek, EPOCH, Santa Clara, CA). The control group’s main purpose was to measure the absorbance of just the cells and the growth medium.

SH-SY5Y cells [6] = assay: WST-8 cytotoxicity assay; type: cell-based, human; conditions: for IC50: SH-SY5Y, 48 h, WST-8, n = 4, read-out: Cytotoxic activity IC50; for SI value (SH-SY5Y cells): IC50 PCS-201-012 fibroblasts / IC50 SH-SY5Y, n = 4
Protocol: as §4

WST-8 cytotoxicity assay = type: cell-based; conditions: human, PCS-201-012 healthy primary dermal fibroblast cells, PCS-201-012 healthy fibroblast cells, WST-8, n = 4, read-out: Cytotoxic activity IC50
Protocol: as §4

[7] = system: Acinetobacter baumannii ATCC 1605; assay: Disc diffusion method; type: cell-based; conditions: for zone of inhibition at 250 µM: ATCC1605, 250 µM; for zone of inhibition at 250 µM / zone of inhibition at 500 µM / zone of inhibition at 1000 µM: read-out: Disc diffusion test, inhibitory zone diameter; for zone of inhibition at 500 µM: ATCC1605, 500 µM; for zone of inhibition at 1000 µM: ATCC1605, 1000 µM
Protocol: as §1, §2

[8] = system: Enterococcus faecalis ATCC 49452; assay: Disc diffusion method; type: cell-based; conditions: for zone of inhibition at 500 µM: ATCC49452, 500 µM; for zone of inhibition at 1000 µM: ATCC49452, 1000 µM
Protocol: as §1, §2

[9] = system: Acinetobacter baumannii ATCC 1605; assay: Micro-well dilution assay (MIC); type: cell-based; conditions: for MIC: ATCC1605
Protocol: as §1, §3

[10] = system: Enterococcus faecalis ATCC 49452; assay: Micro-well dilution assay (MIC); type: cell-based; conditions: for MIC: ATCC49452
Protocol: as §1, §3

SH-SY5Y cells [11] = conditions: read-out: Cytotoxic activity IC50, melphalan control; cited from earlier work
HeLa cells [12] = conditions: read-out: Cytotoxic activity IC50, melphalan control; cited from earlier work
[13] = read-out: Disc diffusion test, inhibitory zone diameter

Row | Structure (SMILES) | zone of inhibition at 250 µM [1] | zone of inhibition at 500 µM [1] | zone of inhibition at 1000 µM [1] | zone of inhibition at 500 µM [2] | zone of inhibition at 1000 µM [2] | MIC [3] | MIC [4] | IC50 (HeLa cells [5]) | SI value (HeLa cells) (HeLa cells [5]) | IC50 (SH-SY5Y cells [6]; Homo sapiens) | SI value (SH-SY5Y cells) (SH-SY5Y cells [6]) | IC50 at 48 h (WST-8 cytotoxicity assay) | melting point | zone of inhibition at 250 µM [7] | zone of inhibition at 500 µM [7] | zone of inhibition at 1000 µM [7] | zone of inhibition at 500 µM [8, 13] | zone of inhibition at 1000 µM [8, 13] | zone of inhibition at 250 µM [2] | MIC [9] | other results
1 | COc1ccccc1CCNC(=O)NC1CCCc2c(OC)cccc21 (stereo not drawn) [Compound 15, 1-(5-Methoxy-1,2,3,4-tetrahydronaphthalen-1-yl)-3-(2-methoxyphenethyl)urea] | 5 mm | 5 mm | 5 mm | 5 mm | 6 mm | 15.6 µM (≈ 5.54 µg/mL) | 15.6 µM (≈ 5.54 µg/mL) | 142 µM | 1.58 | 8.93 µM | 25.26 | 226 µM | 174 to 176 °C | – | – | – | – | – | – | – | IC50 (SH-SY5Y cells [6]): 8.9 µM
2 | COc1cccc(CCNC(=O)NC2CCCc3c(OC)cccc32)c1 (stereo not drawn) [Compound 16, 1-(5-Methoxy-1,2,3,4-tetrahydronaphthalen-1-yl)-3-(3-methoxyphenethyl)urea] | 7 mm | 8 mm | 10 mm | 6 mm | 13 mm | 7.81 µM (≈ 2.77 µg/mL) | 7.81 µM (≈ 2.77 µg/mL) | 32.4 µM | 15.4 | 19.1 µM | 26.10 | > 500 µM | 155 to 157 °C | 5 mm | 10 mm | 13 mm | 6 mm | 7 mm | 5 mm | 7.81 µM (≈ 2.77 µg/mL) | MIC [10]: 3.9 µM (≈ 1.38 µg/mL)
3 | COc1ccc(CCNC(=O)NC2CCCc3c(OC)cccc32)cc1 (stereo not drawn) [Compound 18, 1-(5-Methoxy-1,2,3,4-tetrahydronaphthalen-1-yl)-3-(4-methoxyphenethyl)urea] | 9 mm | 10 mm | 15 mm | 12 mm | 15 mm | 3.9 µM (≈ 1.38 µg/mL) | 3.9 µM (≈ 1.38 µg/mL) | 364 µM | 1.02 | 10.2 µM | 36.72 | 374 µM | 150 to 152 °C | 6 mm | 10 mm | 16 mm | 7 mm | 13 mm | 5 mm | 7.81 µM (≈ 2.77 µg/mL) | zone of inhibition at 250 µM ([8]; ATCC49452, 250 µM, read-out: Disc diffusion test, inhibitory zone diameter): 5 mm; MIC [10]: 0.97 µM (≈ 0.344 µg/mL)
4 | COc1ccc(CCNC(=O)NC2CCCc3c(OC)cccc32)cc1OC (stereo not drawn) [Compound 17, 1-(3,4-Dimethoxyphenethyl)-3-(5-methoxy-1,2,3,4-tetrahydronaphthalen-1-yl)urea] | 7 mm | 10 mm | 10 mm | 13 mm | 14 mm | 7.81 µM (≈ 3 µg/mL) | 7.81 µM (≈ 3 µg/mL) | 251 µM | 1.51 | 9.7 µM | 39.08 | 380 µM | 168 to 170 °C | 6 mm | 8 mm | 15 mm | 7 mm | 10 mm | 8 mm | 7.81 µM (≈ 3 µg/mL) | MIC [10]: 0.97 µM (≈ 0.373 µg/mL)
5 | CC1COc2c(N3CCN(C)CC3)c(F)cc3c(=O)c(C(=O)O)cn1c23 (stereo not drawn) [OFX, ofloxacin, reference compound] | – | – | – | – | – | – | – | – | – | – | – | – | – | – | – | – | – | – | – | – | Standard antibiotic disc, inhibitory zone diameter ([7]; 10 μg/disc): 16 mm; Standard antibiotic disc, inhibitory zone diameter ([8]; 10 μg/disc): 11 mm; Standard antibiotic disc, inhibitory zone diameter ([1]; 10 μg/disc): 23 mm; Standard antibiotic disc, inhibitory zone diameter ([2]; 10 μg/disc): 24 mm; MIC of standard antibiotics [9]: 0.5 µg/mL; MIC of standard antibiotics [10]: 2.5 µg/mL; MIC of standard antibiotics [3]: 11.4 µg/mL; MIC of standard antibiotics [4]: 1.2 µg/mL
6 | N[C@@H](Cc1ccc(N(CCCl)CCCl)cc1)C(=O)O [Melphalan, melphalan] | – | – | – | – | – | – | – | – | – | – | – | – | – | – | – | – | – | – | – | – | IC50 (SH-SY5Y cells [11]): 2.2 µM; IC50 (HeLa cells [12]): 61 µM
7 | CCN[C@@H]1C[C@H](N)[C@@H](O[C@H]2OC(CN)=CC[C@H]2N)[C@H](O)[C@H]1O[C@H]1OC[C@](C)(O)[C@H](NC)[C@H]1O [NET30, netilmycin, reference compound] | – | – | – | – | – | – | – | – | – | – | – | – | – | – | – | – | – | – | – | – | Standard antibiotic disc, inhibitory zone diameter ([7]; 30 μg/disc): 13 mm; Standard antibiotic disc, inhibitory zone diameter ([8]; 30 μg/disc): 9 mm; Standard antibiotic disc, inhibitory zone diameter ([1]; 30 μg/disc): 16 mm; Standard antibiotic disc, inhibitory zone diameter ([2]; 30 μg/disc): 21 mm; MIC of standard antibiotics [9]: 4 µg/mL; MIC of standard antibiotics [10]: 32 µg/mL; MIC of standard antibiotics [3]: 4 µg/mL; MIC of standard antibiotics [4]: 0.8 µg/mL
